In patent US7015325B2, “Tryptase inhibitors” (ALTANA Pharma AG, priority 1999, dated 2006):
Structures can show the parent of a compound that is named as a salt.

The compounds below were run against human tryptase (assay: Inhibition of human tryptase (apparent dissociation constant, chromogenic substrate tos-Gly-Pro-arg-pNA)). Settings: apparent dissociation constant in presence of substrate; heparin 0.1–50 μg/ml; equilibrium conditions; read-out: Kiapp.
Format: biochemical
Excerpt: The documented pathophysiological effects of mast cell tryptase are caused directly by the enzymatic activity of the protease. Accordingly, they are reduced or blocked by inhibitors which inhibit the enzymatic activity of the tryptase. A suitable measure for the affinity of a reversible inhibitor to the target protease is the equilibrium dissociation constant Ki of the enzyme-inhibitor complex. This Ki value can be determined via the effect of the inhibitor on the tryptase-induced cleavage of a chromogenic peptide-p-nitroanilide substrate or a fluorogenic peptide-aminomethylcoumarin substrate.
The dissociation constants for the tryptase-inhibitor complexes are determined under equilibrium conditions in accordance with the general proposals of Bieth (Bieth J G, Pathophysiological Interpretation of kinetic constants of protease inhibitors, Bull. Europ. Physiopath. Resp. 16:183–195, 1980) and the methods of Sommerhoff et al. (Sommerhoff C P et al., A Kazal-type inhibitor of human mast cell tryptase: Isolation from the medical leech Hirudo medicinalis, characterization, and sequence analysis, Biol. Chem. Hoppe-Seyler 375: 685–694, 1994).
Human tryptase is isolated from lung tissue or prepared recombinantly; the specific activity of the protease, determined by titration, is usually greater than 85% of the theoretical value. In the presence of heparin (0.1–50 μg/ml) for stabilizing the protease, constant amounts of the tryptase are incubated with increasing amounts of the inhibitors. After an equilibrium between the reaction partners has formed, the remaining enzyme activity after addition of the peptide-p-nitroanilide substrate tos-Gly-Pro-arg-pNA is determined and the cleavage of the latter is monitored at 405 nm for 3 min. Alternatively, the remaining enzymatic activity can also be determined using fluorogenic substrates. The apparent dissociation constants Kiapp (i.e. in the presence of substrate) are subsequently determined by adapting the enzyme rates to the general equation for reversible inhibitors (Morrison J F, Kinetics of the reversible inhibition of enzyme-catalyzed reactions by tight-binding inhibitors, Biochim. Biophys. Acta 185, 269–286, 1969) using non-linear regression: VI/V0=1−{Et+It+Kiapp−[(Et+It+Kiapp)^2−4EtIt]^1/2}/2Et VI and V0 are the rates in the presence and absence, respectively, of the inhibitor, and Et and It are the tryptase and inhibitor concentrations, respectively.
The apparent dissociation constants determined for the compounds according to the invention are shown in Table A below, where the numbers of the compounds correspond to the numbers of the compounds in the examples.

Row | SMILES | Ki [nM]
1 | NC[C@H]1CC[C@H](C(=O)N2CCN(C(=O)OCCOCC#CCOCCOC(=O)N3CCN(C(=O)[C@H]4CC[C@H](CN)CC4)CC3)CC2)CC1 [Compound 1, 1,4-Bis-[4-(trans-4-aminomethylcyclohexylcarbonyl)-1-piperazinylcarbonyl-1-oxyethyl-2-oxy]-2-butyne dihydrochloride] | 86
2 | NCc1ccc(CNC(=O)N2CCN(C(=O)OCCOCC#CCOCCOC(=O)N3CCN(C(=O)NCc4ccc(CN)cc4)CC3)CC2)cc1 [Compound 2, 1,4-Bis-[4-(4-aminomethylbenzylaminocarbonyl)-1-piperazinylcarbonyl-1-oxyethyl-2-oxy]-2-butyne dihydrochloride] | 0.35
3 | NCc1cccc(CNC(=O)N2CCN(C(=O)OCCOCC#CCOCCOC(=O)N3CCN(C(=O)NCc4cccc(CN)c4)CC3)CC2)c1 [Compound 3, 1,4-Bis-[4-(3-aminomethylbenzylaminocarbonyl)-1-piperazinylcarbonyl-1-oxyethyl-2-oxy]-2-butyne dihydrochloride] | 8
4 | NCc1ccc(CNC(=O)N2CCN(C(=O)OCC#CC#CCOC(=O)N3CCN(C(=O)NCc4ccc(CN)cc4)CC3)CC2)cc1 [Compound 4, 1,6-Bis-[4-(4-aminomethylbenzylaminocarbonyl)-1-piperazinylcarbonyl-1-oxy]-2,4-hexadiyne dihydrochloride] | 0.25

Further lines, results first:

Row | Ki [nM] | SMILES
5 | 12 | NCc1ccc(CNC(=O)N2CCN(C(=O)OCCCCC#CC#CCCCCOC(=O)N3CCN(C(=O)NCc4ccc(CN)cc4)CC3)CC2)cc1 [Compound 5, 1,12-Bis-[4-(4-aminomethylbenzylaminocarbonyl)-1-piperazinylcarbonyl-1-oxy]-5,7-dodecadiyne dihydrochloride]
6 | 1.4 | NCc1cccc(CNC(=O)N2CCN(C(=O)OCCCCC#CC#CCCCCOC(=O)N3CCN(C(=O)NCc4cccc(CN)c4)CC3)CC2)c1 [Compound 6, 1,12-Bis-[4-(3-aminomethylbenzylaminocarbonyl)-1-piperazinylcarbonyl-1-oxy]-5,7-dodecadiyne dihydrochloride]
7 | 8 | NCc1cccc(CNC(=O)N2CCN(C(=O)OCC#CC#CCOC(=O)N3CCN(C(=O)NCc4cccc(CN)c4)CC3)CC2)c1 [Compound 7, 1,6-Bis-[4-(3-aminomethylbenzylaminocarbonyl)-1-piperazinylcarbonyl-1-oxy]-2,4-hexadiyne dihydrochloride]
